Columns and labels:
Trypanosoma brucei = assay: Antitrypanosomal activity against Trypanosoma brucei bloodstream form assessed as parasite growth inhibition incubated for 72 hrs by resazurin dye based assay; format: functional, organism-based
[1] = Cytotoxicity against human A549 cells assessed as cell growth at […] incubated for 48 hrs by Celltiter-Glo luminescence assay relative to control; format: cell-based; parameters: dose or concentration left out as unconfirmed; details: read-out: Activity
CYP3A4 = CYP3A4 (Homo sapiens, UniProt P08684); assay: Inhibition of human microsomal CYP3A4 expressed in baculovirus infected insect cells at 10 uM using luciferin-IPA as substrate preincubated with enzyme/substrate mixture for 30 mins followed by further incubation with NADPH for 30 mins by CYP450 luciferase Glo assay relative to control; format: ADME; details: probe luciferin-IPA
CYP2C19 = CYP2C19 (Homo sapiens, UniProt P33261); assay: Inhibition of human microsomal CYP2C19 expressed in baculovirus infected insect cells at 10 uM using luciferin-H EGE as substrate preincubated with enzyme/substrate mixture for 30 mins followed by further incubation with NADPH for 30 mins by CYP450 luciferase Glo assay relative to control; format: ADME; details: probe luciferin-H EGE
hERG (KCNH2) = hERG (KCNH2) (Homo sapiens, UniProt Q12809); assay: Inhibition of human ERG at 10 uM incubated for 2 hrs by fluorescence polarization assay relative to control
CYP2C9 = CYP2C9 (Homo sapiens, UniProt P11712); assay: Inhibition of human microsomal CYP2C9 expressed in baculovirus infected insect cells at 10 uM using luciferin-H as substrate preincubated with enzyme/substrate mixture for 30 mins followed by further incubation with NADPH for 30 mins by CYP450 luciferase Glo assay relative to control; format: ADME; details: probe luciferin-H
CYP2D6 = CYP2D6 (Homo sapiens, UniProt P10635); assay: Inhibition of human microsomal CYP2D6 expressed in baculovirus infected insect cells at 10 uM using luciferin-ME as substrate preincubated with enzyme/substrate mixture for 30 mins followed by further incubation with NADPH for 30 mins by CYP450 luciferase Glo assay relative to control; format: ADME; details: probe luciferin-ME
[2] = Cytotoxicity against human THP1 cells by MTT assay; format: cell-based, THP-1
CYP1A2 = biological target: T1, CYP1A2 (Homo sapiens, UniProt P05177); assay: Inhibition of human microsomal CYP1A2 expressed in baculovirus infected insect cells at 10 uM using luciferin-1A2 as substrate preincubated with enzyme/substrate mixture for 30 mins followed by further incubation with NADPH for 30 mins by CYP450 luciferase Glo assay relative to control; format: ADME; details: probe luciferin-1A2
T1 sequence (P05177 whole entry): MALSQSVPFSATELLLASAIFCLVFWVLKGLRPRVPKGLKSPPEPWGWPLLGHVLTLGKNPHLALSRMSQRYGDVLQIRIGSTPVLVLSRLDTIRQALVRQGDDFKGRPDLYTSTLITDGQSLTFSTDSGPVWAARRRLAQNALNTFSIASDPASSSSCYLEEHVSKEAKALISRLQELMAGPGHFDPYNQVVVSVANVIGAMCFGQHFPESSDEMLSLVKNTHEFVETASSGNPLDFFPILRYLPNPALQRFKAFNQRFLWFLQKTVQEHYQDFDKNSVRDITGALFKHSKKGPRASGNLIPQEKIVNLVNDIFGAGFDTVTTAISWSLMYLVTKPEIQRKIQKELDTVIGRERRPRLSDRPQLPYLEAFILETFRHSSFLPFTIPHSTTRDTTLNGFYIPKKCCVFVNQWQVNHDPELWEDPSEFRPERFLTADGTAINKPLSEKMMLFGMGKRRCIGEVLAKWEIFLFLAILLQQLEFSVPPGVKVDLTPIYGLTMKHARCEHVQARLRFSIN

Leishmania infantum = assay: Antileishmanial activity against luciferase expressing intracellular amastigote stage of Leishmania infantum infected in human THP1 cells assessed as parasite growth inhibition measured after 48 to 72 hrs by steady-glo luciferase assay; format: functional, organism-based
786-0 = assay: Mitochondrial toxicity in human 786-0 cells at 10 uM incubated with compound for 6 hrs followed by incubation with MitoTracker Red chloromethyl-X-rosamine dye for 45 mins by imaging analysis; format: cell-based; details: 786-0, 6 h
[3] = Trypanosoma brucei, 72 h, read-out: EC50

Sequence of CYP2C9 (P11712 whole entry): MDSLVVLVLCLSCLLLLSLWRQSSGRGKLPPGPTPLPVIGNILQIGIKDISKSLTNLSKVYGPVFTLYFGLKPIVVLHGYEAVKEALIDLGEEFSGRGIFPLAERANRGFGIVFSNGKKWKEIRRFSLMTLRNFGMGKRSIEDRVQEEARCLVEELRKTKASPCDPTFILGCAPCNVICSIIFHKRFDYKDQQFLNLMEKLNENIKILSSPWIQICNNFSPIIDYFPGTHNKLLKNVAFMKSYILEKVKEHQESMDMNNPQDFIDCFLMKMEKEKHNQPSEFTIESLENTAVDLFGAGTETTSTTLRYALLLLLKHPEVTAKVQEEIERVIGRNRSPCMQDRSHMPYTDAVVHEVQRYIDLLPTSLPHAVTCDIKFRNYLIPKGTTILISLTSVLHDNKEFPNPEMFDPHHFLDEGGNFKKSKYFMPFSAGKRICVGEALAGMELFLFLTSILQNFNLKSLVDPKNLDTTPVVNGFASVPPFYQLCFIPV
Sequence of CYP3A4 (P08684 whole entry): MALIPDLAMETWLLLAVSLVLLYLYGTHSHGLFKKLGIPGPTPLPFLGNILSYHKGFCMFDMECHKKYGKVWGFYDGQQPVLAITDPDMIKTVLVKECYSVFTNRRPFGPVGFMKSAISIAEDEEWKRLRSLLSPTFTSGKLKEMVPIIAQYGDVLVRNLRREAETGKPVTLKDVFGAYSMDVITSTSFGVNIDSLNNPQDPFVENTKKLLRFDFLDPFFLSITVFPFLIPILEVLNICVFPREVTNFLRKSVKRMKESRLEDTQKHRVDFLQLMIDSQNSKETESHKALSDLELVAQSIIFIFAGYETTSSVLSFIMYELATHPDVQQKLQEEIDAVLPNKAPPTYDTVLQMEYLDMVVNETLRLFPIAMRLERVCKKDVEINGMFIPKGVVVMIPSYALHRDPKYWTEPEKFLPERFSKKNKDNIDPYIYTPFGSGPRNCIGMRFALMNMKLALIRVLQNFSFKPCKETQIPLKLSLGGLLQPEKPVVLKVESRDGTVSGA
Sequence of CYP2D6 (P10635 whole entry): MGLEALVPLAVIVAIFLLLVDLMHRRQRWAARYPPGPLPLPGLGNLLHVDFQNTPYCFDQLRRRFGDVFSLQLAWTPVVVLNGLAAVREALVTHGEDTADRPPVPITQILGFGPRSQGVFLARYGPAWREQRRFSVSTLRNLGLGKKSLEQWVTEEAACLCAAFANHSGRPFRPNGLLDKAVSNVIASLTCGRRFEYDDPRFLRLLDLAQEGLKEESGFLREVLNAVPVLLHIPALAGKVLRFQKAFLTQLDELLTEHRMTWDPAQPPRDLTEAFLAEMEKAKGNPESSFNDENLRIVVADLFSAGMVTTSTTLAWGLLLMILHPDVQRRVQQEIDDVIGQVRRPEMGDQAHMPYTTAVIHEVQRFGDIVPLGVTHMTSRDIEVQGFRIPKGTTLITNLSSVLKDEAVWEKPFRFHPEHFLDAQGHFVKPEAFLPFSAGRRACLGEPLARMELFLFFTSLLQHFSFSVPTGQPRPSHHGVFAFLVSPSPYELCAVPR
Sequence of hERG (KCNH2) (Q12809 whole entry): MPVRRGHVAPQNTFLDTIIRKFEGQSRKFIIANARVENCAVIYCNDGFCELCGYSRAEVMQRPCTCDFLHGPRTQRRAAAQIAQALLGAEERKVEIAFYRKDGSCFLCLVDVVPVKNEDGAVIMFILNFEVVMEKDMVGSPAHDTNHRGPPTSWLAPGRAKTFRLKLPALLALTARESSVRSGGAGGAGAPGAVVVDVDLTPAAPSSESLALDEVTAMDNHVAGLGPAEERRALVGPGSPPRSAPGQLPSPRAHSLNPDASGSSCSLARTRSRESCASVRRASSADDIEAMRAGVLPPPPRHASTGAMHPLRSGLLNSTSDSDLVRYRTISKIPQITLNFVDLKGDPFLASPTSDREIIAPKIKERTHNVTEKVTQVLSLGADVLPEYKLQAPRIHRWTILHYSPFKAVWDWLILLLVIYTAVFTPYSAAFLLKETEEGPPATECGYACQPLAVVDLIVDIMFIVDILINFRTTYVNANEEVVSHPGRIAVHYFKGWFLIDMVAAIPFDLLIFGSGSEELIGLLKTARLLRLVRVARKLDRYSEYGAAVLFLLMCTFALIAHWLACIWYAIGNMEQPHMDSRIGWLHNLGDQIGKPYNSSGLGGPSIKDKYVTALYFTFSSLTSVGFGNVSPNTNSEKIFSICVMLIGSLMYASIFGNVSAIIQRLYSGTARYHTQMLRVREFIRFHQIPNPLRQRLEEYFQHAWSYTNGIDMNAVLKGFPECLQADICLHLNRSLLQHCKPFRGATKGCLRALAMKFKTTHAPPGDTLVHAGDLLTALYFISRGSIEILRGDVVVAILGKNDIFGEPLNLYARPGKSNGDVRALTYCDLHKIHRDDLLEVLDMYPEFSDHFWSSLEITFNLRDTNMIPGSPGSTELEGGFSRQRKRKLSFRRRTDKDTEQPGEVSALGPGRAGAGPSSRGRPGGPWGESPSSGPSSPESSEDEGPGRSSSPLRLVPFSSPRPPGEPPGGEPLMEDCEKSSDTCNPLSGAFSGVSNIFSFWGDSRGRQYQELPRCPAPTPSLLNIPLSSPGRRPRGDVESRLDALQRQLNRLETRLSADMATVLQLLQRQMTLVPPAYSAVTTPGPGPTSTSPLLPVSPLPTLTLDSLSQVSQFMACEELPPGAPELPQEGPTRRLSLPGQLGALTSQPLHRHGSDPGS
Sequence of CYP2C19 (P33261 whole entry): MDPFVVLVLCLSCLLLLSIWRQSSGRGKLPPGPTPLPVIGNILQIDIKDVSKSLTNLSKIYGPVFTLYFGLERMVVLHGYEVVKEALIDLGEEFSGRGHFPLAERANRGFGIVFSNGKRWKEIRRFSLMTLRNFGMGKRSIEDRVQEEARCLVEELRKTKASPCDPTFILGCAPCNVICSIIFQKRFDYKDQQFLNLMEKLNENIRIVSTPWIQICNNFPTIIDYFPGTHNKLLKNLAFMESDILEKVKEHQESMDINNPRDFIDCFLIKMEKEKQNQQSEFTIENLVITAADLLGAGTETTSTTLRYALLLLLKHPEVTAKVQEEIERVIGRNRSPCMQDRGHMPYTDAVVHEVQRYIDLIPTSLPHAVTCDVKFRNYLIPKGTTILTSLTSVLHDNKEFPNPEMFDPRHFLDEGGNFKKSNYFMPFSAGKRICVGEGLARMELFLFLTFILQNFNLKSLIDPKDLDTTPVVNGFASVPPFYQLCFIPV

Row | Compound | EC50 (Trypanosoma brucei; [3]) [µM] | viability at 48 h [1] [%] | inhibition at 0.5 h, 10 µM (CYP3A4) [%] | inhibition at 0.5 h, 10 µM (CYP2C19) [%] | inhibition at 2 h, 10 µM (hERG (KCNH2)) [%] | inhibition at 0.5 h, 10 µM (CYP2C9) [%] | inhibition at 0.5 h, 10 µM (CYP2D6) [%] | CC50 [2] [µM] | inhibition at 0.5 h, 10 µM (CYP1A2) [%] | EC50 (Leishmania infantum) | Activity (786-0) [%] | EC50 (Trypanosoma brucei)
1 | O=c1c(O)c(-c2csc3ccccc23)oc2cc(Cl)ccc12 | 5.34 | -49.6 | -5.72 | -6.35 | 16.3 | 5.82 | -3.33 | 50 to 100 | 57.5 | Not Active | 81.33 | 
2 | Cc1ccc2oc(-c3csc4ccccc34)c(O)c(=O)c2c1 | 2 | 129 | -19.3 | 22.4 | -21.6 | 19.4 | 16 | < 12.5 | 81.3 | Not Active | -21.98 | 
3 | O=c1c(O)c(-c2csc3ccccc23)oc2cc(F)ccc12 |  | 124 | 9.54 | 24.2 | 11.6 | 26.5 | 23 | 25 to 50 | 80.6 | Not Active | -22.29 | 
4 | CCOc1ccc2c(=O)c(O)c(-c3csc4ccccc34)oc2c1 |  | 11.9 | 11.5 | 46.1 | -3.21 | 23 | 24.7 | 12.5 to 25 | 81.8 | Not Active | 29.51 | Not Active
5 | CCCOc1c(-c2csc3ccccc23)oc2ccc(OC)cc2c1=O |  | 60.1 | 48.2 | 31.7 | 33.9 | 19.6 | 66.5 | 12.5 to 25 | 57.2 | Not Active | 95.63 | Not Active
6 | Cc1ccsc1-c1oc2cc(O)ccc2c(=O)c1O |  | 83.4 | 73.8 | 57.9 | -1.79 | 43.8 | 24.1 | 12.5 to 20 | 108 |  | -3.38 | Not Active
7 | Cc1ccc2c(=O)c(O)c(-c3csc4ccccc34)oc2c1 | 4.5 | 50.1 | 13.2 | 39.1 | -15 | 37 | 28.1 | 50 to 100 | 94.2 | Not Active | -19.4 | 
8 | O=c1c(O)c(-c2ccco2)oc2cc(O)ccc12 |  | 108 | 14.1 | 65.4 | 18.7 | 83.7 | 28.4 | > 100 | 93.5 |  | -1.18 | Not Active
9 | COc1ccc2oc(-c3ccc4ncccc4c3)c(O)c(=O)c2c1 |  | 101 | -3.86 | -8.24 | 16.1 | -3.36 | -15.1 | > 100 | 27.4 |  | -7.05 | Not Active
